Where a name gives a salt, the structure may show the parent alone. Activity calls are given as the source filed them.
Experiments:
[1] = T. cruzi growth inhibition in host cells, dose response, cell-based, plate reader, dry powder, set 2 (AID 652275); assay type: functional
Protein Wnt-3a = Protein Wnt-3a (Mus musculus, UniProt P27467); experiment: SAR analysis of small molecule antagonists of Gli-SUFU in a Wnt3a luminescent reporter assay.; assay type: functional
[2] = inhibitors of non-replicating M. tuberculosis, dose response, luciferase, dry powder (AID 651620); assay type: functional; details: Mycobacterium tuberculosis
[3] = inhibitors of non-replicating M. tuberculosis, dose response, luciferase, dry powder (AID 651619); assay type: functional; details: Mycobacterium tuberculosis
[4] = biological target: Endoplasmic reticulum aminopeptidase 1 (Homo sapiens, UniProt Q9NZ08); experiment: ERAP1 aminopeptidase inhibitors, dose response, biochemical, cherry-pick, set 2, plate reader (AID 743314)
[5] = P. falciparum Dd2 growth inhibitors, dose response, SYBR Green, dry powder samples (AID 1159566); assay type: functional, cell-based;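 also: potency for growth inhibition with lower SYBR green DNA signal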
[6] = HepG2 cell cytotoxicity, dose response, cytotoxicity control, plate reader, dry powder samples (AID 1159569); assay type: functional, cell-based;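 also: inhibitor potency with signal falling toward the positive control level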
[7] = P. falciparum Dd2 growth inhibitors, dose response, SYBR Green, cherry-picked samples (AID 1159567); assay type: functional, cell-based
[8] = P. falciparum ATP4 D1247Y mutant growth inhibitors, dose response, NITD609-resistant line, SYBR Green, dry powder (AID 1159571); assay type: functional, cell-based;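 also: parasites synchronized at ring stage by sorbitol before testing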
[9] = P. falciparum 3D7-ScDHODH growth inhibitors, dose response, SYBR Green, dry powder samples (AID 1159570); assay type: functional, cell-based;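 also: parasite growth measured after 72 hours of compound exposure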
[10] = A549 cell cytotoxicity, dose response, CellTiter-Glo luminescence, dry powder, set 17 (AID 1117284); assay type: functional, cell-based
[11] = inhibitors of HIV Env-driven cell fusion, dose response, cherry-pick (AID 652057); assay type: functional, cell-based
[12] = cytotoxicity toward NIH3T3 fibroblasts, dose response, counter-screen, cell-based, ATP luminescence, mouse fibroblasts (AID 2010); assay type: functional;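 also: cells exposed to compound for about 90 hours before reading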
[13] = growth suppression of beta-catenin-knockout colon cells, dose response, cell-based, HCT116, human colon tumor (AID 1045); assay type: functional;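 also: HCT116 colon tumor cells with beta catenin knocked out; cells exposed to compound for 60 hours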
[14] = inhibitors of clade B AD8 Env fusion, dose response, cell-based, cherry-pick (AID 652062); assay type: functional;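 also: luciferase signal from cell-cell fusion driven by HIV-1 clade B AD8 Env; potency is for inhibitors of fusion seen as a drop in luminescence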
[15] = CEM21 lymphoblast cell cytotoxicity, dose response, cytotoxicity control for viral fusion inhibitor project, CellTiter-Glo luminescence, cherry-picked (AID 652042); assay type: functional, cell-based;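 also: potency for signal decrease meaning cytotoxicity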
[16] = growth suppression of PTEN-null colon cells, dose response, cell-based, HCT116 PTEN knockout (AID 1047); assay type: functional;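 also: HCT116 colon tumor cells with PTEN knocked out; cells exposed to compound for 60 hours before readout; potency for loss of cell viability measured by luminescence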
[17] = off-target signal loss in HeLa-CEM21 co-culture – HeLa F-luc CTL cells, cherry-picked, counter-screen for HIV-1 Env fusion inhibitor project, dose response (AID 652040); assay type: functional, cell-based;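 also: potency for signal decrease marking cytotoxic or nonspecific inhibition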
[18] = Luminescence Cell-Based Dose Retest to Confirm Inhibitors of Cancer Stem Cells. [Related pubchem assays (depositor defined):AID2717, AID2721]; assay type: functional; details: Homo sapiens
[19] = ZM109 Env clade C HIV-1 fusion inhibitors, dose response, HeLa effector, CEM target cells, luciferase, cherry-pick (AID 652058); assay type: functional, cell-based
[20] = biological target: T1, Ubiquitin-conjugating enzyme E2 N (Homo sapiens, UniProt P61088); assay type: functional;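 also: Dose-response confirmation in a TR-FRET assay detecting UBC13-driven polyubiquitin chain formation, inhibition measured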
T1 sequence (P61088 whole entry): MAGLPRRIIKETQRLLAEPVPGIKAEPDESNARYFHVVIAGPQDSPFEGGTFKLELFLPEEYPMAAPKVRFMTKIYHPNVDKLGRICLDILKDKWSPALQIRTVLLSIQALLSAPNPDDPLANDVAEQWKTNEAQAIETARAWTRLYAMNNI

[21] = inhibitors of intracellular T. cruzi replication, confirmation, NIH3T3 host cells, beta-gal luminescence (AID 2044); assay type: functional, cell-based;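 also: intracellular parasites grown in NIH/3T3 mouse fibroblasts as host cells; luminescent beta-galactosidase reporter signal from transgenic T. cruzi replicating inside host cells; inhibitors lower the luminescence signal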
INS1 = experiment: beta cell apoptosis inhibitors, cytokine rescue, dose response, luminescence, retest (AID 449756); assay type: functional, cell-based; details: Rattus norvegicus;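 also: cell death triggered by IL-1 beta plus TNF-alpha plus IFN-gamma mixture; protective hits raise ATP signal compared with cytokine alone wells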
[22] = Dose-response inhibition of insulin secretion in a rat insulinoma line at 5 mM glucose (AID 1117331); assay type: functional, cell-based; details: INS-1E
Cytochrome P450 2C19 = Cytochrome P450 2C19 (Homo sapiens, UniProt P33261); experiment: Cytochrome panel assay with activity outcomes. Panel member name: p450-cyp2c19 Compounds with AC50 equal or less than 10 uM are considered active; assay type: functional; details: read-out: AC50
cells = assay type: functional, cell-based; details: INS-1E
Cytochrome P450 1A2 = biological target: T2, Cytochrome P450 1A2 (Homo sapiens, UniProt P05177);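 also: PubChem cytochrome P450 panel assay, CYP1A2 panel member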
T2 sequence (P05177 whole entry): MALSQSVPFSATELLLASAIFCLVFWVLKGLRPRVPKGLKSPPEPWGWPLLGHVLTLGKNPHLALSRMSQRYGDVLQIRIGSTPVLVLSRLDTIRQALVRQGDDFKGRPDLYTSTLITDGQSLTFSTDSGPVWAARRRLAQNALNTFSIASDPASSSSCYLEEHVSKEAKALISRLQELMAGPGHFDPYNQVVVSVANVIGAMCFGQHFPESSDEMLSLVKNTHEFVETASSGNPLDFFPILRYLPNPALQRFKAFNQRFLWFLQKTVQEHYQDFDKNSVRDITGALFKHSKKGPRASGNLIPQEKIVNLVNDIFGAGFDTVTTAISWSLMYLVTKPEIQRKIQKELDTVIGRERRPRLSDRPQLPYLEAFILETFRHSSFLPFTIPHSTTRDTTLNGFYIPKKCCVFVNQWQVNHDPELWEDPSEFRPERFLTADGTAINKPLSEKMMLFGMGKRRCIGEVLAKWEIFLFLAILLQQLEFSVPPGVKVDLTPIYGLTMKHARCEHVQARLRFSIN

Chain of Endoplasmic reticulum aminopeptidase 1 (Q9NZ08 whole entry): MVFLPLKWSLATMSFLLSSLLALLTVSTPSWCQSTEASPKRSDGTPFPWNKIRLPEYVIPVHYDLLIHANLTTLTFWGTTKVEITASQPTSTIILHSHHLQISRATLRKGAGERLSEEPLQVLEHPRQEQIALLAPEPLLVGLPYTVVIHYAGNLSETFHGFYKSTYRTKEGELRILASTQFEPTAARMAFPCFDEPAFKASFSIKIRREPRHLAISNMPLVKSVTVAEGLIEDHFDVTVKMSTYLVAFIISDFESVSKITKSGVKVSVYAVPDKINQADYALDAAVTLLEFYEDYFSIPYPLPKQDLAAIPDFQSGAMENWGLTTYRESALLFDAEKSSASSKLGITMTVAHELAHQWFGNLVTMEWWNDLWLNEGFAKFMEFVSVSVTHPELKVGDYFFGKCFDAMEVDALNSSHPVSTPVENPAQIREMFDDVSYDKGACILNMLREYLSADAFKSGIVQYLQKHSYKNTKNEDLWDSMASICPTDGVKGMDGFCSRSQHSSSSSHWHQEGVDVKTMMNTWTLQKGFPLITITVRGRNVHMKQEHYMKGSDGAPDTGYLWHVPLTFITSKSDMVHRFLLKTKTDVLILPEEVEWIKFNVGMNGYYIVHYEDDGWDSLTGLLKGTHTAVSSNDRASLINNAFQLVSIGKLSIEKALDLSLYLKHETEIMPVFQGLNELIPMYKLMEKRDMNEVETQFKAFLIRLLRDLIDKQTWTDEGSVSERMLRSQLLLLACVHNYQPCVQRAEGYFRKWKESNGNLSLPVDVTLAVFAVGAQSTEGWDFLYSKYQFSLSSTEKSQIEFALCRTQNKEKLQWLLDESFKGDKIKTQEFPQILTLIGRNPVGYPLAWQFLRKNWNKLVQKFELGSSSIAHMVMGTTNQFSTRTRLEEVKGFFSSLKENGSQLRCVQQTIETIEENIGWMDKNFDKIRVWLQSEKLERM
Chain of Protein Wnt-3a (P27467 whole entry): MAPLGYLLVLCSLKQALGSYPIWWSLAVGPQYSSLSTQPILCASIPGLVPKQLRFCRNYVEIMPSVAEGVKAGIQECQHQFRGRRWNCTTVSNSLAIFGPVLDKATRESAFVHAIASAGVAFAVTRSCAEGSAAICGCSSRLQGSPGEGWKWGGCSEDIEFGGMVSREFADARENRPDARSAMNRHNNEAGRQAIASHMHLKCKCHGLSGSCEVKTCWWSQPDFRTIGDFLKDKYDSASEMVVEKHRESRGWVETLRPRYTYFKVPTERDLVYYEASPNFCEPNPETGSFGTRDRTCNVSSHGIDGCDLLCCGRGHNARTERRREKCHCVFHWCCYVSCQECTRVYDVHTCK
Chain of Cytochrome P450 2C19 (P33261 whole entry): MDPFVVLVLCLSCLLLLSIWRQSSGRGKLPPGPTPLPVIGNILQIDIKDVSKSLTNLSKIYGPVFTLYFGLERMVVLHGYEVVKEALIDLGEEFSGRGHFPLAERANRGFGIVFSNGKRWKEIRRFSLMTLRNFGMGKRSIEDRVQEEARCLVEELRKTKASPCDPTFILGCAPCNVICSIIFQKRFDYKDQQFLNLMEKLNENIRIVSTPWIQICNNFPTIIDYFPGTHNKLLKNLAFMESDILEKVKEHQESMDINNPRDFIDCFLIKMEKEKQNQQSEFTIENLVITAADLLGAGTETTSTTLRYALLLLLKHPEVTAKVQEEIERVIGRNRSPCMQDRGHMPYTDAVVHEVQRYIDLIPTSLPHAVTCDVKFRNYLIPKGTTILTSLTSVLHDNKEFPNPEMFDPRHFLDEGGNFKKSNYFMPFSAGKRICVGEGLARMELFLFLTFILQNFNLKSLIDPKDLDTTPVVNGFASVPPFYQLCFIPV

C[C@H]1CN([C@@H](C)CO)C(=O)c2cccc(NC(=O)c3ccncc3)c2O[C@@H]1CN(C)Cc1ccc(F)cc1Cl
AC50 [1]: 0.0324 µM (active)

CN(C)c1cc(NC(=O)c2ccccc2)ncn1
IC50 (Protein Wnt-3a): > 21.8 µM (inactive)

CN(C)C(=O)c1ccc(-c2ccc([C@H]3[C@H](CO)N4CCCCN(CC5CC5)C[C@@H]34)cc2)cc1
AC50 [1]: 2.74 µM (active)

COc1ccc(CSc2nnc(-c3ccc(Cl)cc3)o2)nc1
IC90 [2]: 2 µM (active)
IC90 [3]: 2 µM (active)

CCC(=O)N1[C@H](C(=O)OC)[C@@H](CO)[C@@H]2Cn3c(ccc(/C=C/c4ccccc4)c3=O)[C@@H]21
AC50 [4]: 12.8 µM (active)

COc1cccc(NC(=O)N2[C@@H](CO)[C@H](c3ccccc3)[C@@H]2CNCC(C)C)c1
AC50 [5]: 0.852 µM (active)
AC50 [6]: 95.4 µM (active)
AC50 [7]: 2.02 µM (active)
AC50 [8]: 1.66 µM (active)
AC50 [9]: 1.46 µM (active)

COc1ccccc1-c1ccc(CN(C)C[C@@H]2Oc3cc(C#C[C@@H](C)O)ccc3S(=O)(=O)N([C@@H](C)CO)C[C@@H]2C)cc1
AC50 [10]: > 52 µM (inactive)

CN(C)C(=O)c1ccc(-c2cccc(-c3nc(C(=O)NC4CCCC4)cc4c3[C@H](CCO)N([S@@+]([O-])C(C)(C)C)C4)c2)cc1
AC50 [5]: 0.768 µM (active)
AC50 [6]: 30.5 µM (active)
AC50 [7]: 1.99 µM (active)
AC50 [8]: 1.03 µM (active)
AC50 [9]: 1.14 µM (active)

Cc1ccc(Nc2cc(C)nc(NCc3ccccc3)n2)cc1
AC50 [11]: 4.04 µM (active)
EC50 [12]: > 60 µM (inconclusive)
EC50 [13]: 6.62 µM (active)
AC50 [14]: 7.54 µM (active)
AC50 [15]: 17.2 µM (active)
EC50 [16]: 7.18 µM (active)
AC50 [17]: 4.77 µM (active)
AC50 [18]: 6.3 µM (active)
AC50 [19]: 4.51 µM (active)
IC50 [20]: > 20 µM (inactive)
EC50 [21]: 0.255 µM (active)
AC50 (INS1): 3.94 µM (active)

N=C(N)NCCC[C@H](N)C(=O)O [ARGININE]
IC50 [22]: > 33.3 µM (inactive)
AC50 (Cytochrome P450 2C19): 10 µM (inconclusive)
IC50 (cells): > 33.3 µM (inactive)
AC50 (Cytochrome P450 1A2): 31.6 µM (inconclusive)

CN(C)CCOC(c1ccc(Cl)cc1)c1ccccn1 (stereo not given) [CARBINOXAMINE MALEATE]
IC50 [22]: 21.4 µM (inactive)
IC50 (cells): > 33.3 µM (inactive)

Source: ChEMBL document CHEMBL1201862, “PubChem BioAssay data set” (2004)
